The test system of data set [1] is Plasmodium falciparum. The data set can be described thus: NOVARTIS: Inhibition of Plasmodium falciparum W2 (drug-resistant) proliferation in erythrocyte-based infection assay. The note with it: Plasmodium falciparum, W2; read-out: EC50. It is filed as functional, organism-based.
Data set [2] in a line: NOVARTIS: Cytotoxicity against human hepatocellular carcinoma cell line (Huh7). It counts as toxicity, cell-based, Huh-7. The note with it: Huh7 cells (hepatocellular carcinoma cell line).
In data set [3] the test system is Plasmodium falciparum. The data set is described as follows: NOVARTIS: Inhibition of Plasmodium falciparum 3D7 (drug-susceptible) proliferation in erythrocyte-based infection assay. It is filed as functional, organism-based. To be noted: Plasmodium falciparum, 3D7.

From ChEMBL document CHEMBL1156829 (Proc Natl Acad Sci U S A, 2008) come the findings set out here.

Structures are written as SMILES. pEC50: −log10 of the molar value. A value given as a limit tells only on which side of the number the result lay.

Regarding `COc1ccc2nc(-c3ccccc3)cc(O)c2c1`, the pEC50 with Plasmodium falciparum [1] was 6.50; in the data set with Plasmodium falciparum [3], 6.39. The CC50 in data set [2] came to 835 nM.
The like results for `COc1cc(/C=C2\CC/C(=C\c3cc(OC)c(OC)c(OC)c3)C2=O)cc(OC)c1OC` were, in that order, 6.34, 6.34 and 873 nM.
The like results for `OCCCNc1cc(-c2ccnc(Nc3cccc(Cl)c3)n2)ccn1` were, in that order, 6.73, 6.63 and 269 nM.
For `CC[C@H]1CN2CCc3cc(OC)c(OC)cc3[C@@H]2C[C@@H]1C[C@@H]1NCCc2cc(OC)c(OC)cc21` the same measures were 7.64, 7.97 and 82.2 nM.
For `CCOc1ccc(Nc2nc(N)c3ccccc3n2)cc1`, the pEC50 was 5.80 in the data set on Plasmodium falciparum [1] and 6.06 in the data set on Plasmodium falciparum [3]. The midpoint of cytotoxicity in data set [2], the CC50, lay at 2370 nM.
The like results for `CC(C)c1cccc(C(C)C)c1NC(=O)N(Cc1ccccc1)C(C)c1nc2ccccc2c(=O)n1-c1ccc(Cl)cc1` (centres undefined) were, in that order, 5.99, 6.01 and greater than 1460 nM.
The like results for `Cc1ccc(NC(C)c2nc3ccccc3c(=O)n2CCOC2CCCCO2)cc1C` (centres undefined) were, in that order, 5.99, 6.10 and greater than 2700 nM.
For `O=C(Nc1ccc(-c2nc3cc(NC(=O)c4ccc(Br)o4)ccc3[nH]2)cc1)c1ccc(Br)o1` the same measures were 6.15, 6.53 and 2250 nM.
As for `CCN(CC)CCN1C(=O)c2ccc3c4c(ccc(c24)C1=O)C(=O)N(CCN(CC)CC)C3=O`, the negative logarithm of the EC50 (pEC50) in the data set on Plasmodium falciparum [1] is 6.87; in the data set with Plasmodium falciparum [3], 6.61. In data set [2], the midpoint of cytotoxicity, the CC50, lay at 221 nM.
Turning to `Cc1ccc(S(=O)(=O)N2CCN(C(=O)c3ccccc3)C2c2ccccc2)cc1` (centres undefined), the pEC50 was 5.20 in the data set on Plasmodium falciparum [1] and less than 4.90 with Plasmodium falciparum [3]. This compound also returned a CC50 in data set [2] of 10600 nM.
For the compound `CC(C)(C)c1ccc(C=CC(=O)NCc2ccco2)cc1`, the pEC50 is 6.49 in the data set on Plasmodium falciparum [1] and 6.21 with Plasmodium falciparum [3]. In data set [2], this compound displayed a CC50 of 1140 nM.
As for `CN(C)CCCNc1cc(-c2ccccc2)nc2ccccc12`, the negative logarithm of the EC50 (pEC50) with Plasmodium falciparum [1] is 5.29; in the data set with Plasmodium falciparum [3] it was 6.91. Also, half-maximal cytotoxicity in data set [2] (CC50) was put at 18600 nM.
The like results for `Cc1noc(C)c1S(=O)(=O)N(CC(C)C)C(C(=O)NC(CN1CCCC1)c1ccccc1)c1ccccc1` (centres undefined) were, in that order, 5.78, 6.11 and 2820 nM.
For `COc1cc(C(=O)N2C(C(=O)Nc3ccccc3F)CSC2c2ccc(C(C)(C)C)cc2)cc(OC)c1OC` (centres undefined) the same measures were 5.89, 5.98 and greater than 2310 nM.
For `Cc1ccccc1N(CC(=O)NCC1CCCO1)C(=O)c1snc(C(N)=O)c1N` (centres undefined) the same measures were less than 5.90, less than 6.15 and greater than 2400 nM.
For the compound `COc1ccc(Nc2nc3nonc3nc2NN=Cc2cc(Cl)ccc2O)cc1`, the pEC50 is 5.79 in the data set on Plasmodium falciparum [1] and 5.75 in the data set with Plasmodium falciparum [3]. For the same compound, the CC50 in data set [2] is greater than 3170 nM.
For `CC(=O)N(C)C1=C(N2CCOCC2)C(=O)c2ccccc2C1=O` the same measures were 6.54, 6.60 and 590 nM.
`Nc1nc(N)c2cc(S(=O)(=O)N3CCCCC3)ccc2n1`: the pEC50 with Plasmodium falciparum [1] was less than 5.90; in the data set with Plasmodium falciparum [3], 7.70. Half-maximal cytotoxicity in data set [2] (CC50) was put at 2670 nM.
Take `COc1cnc(-c2ccccn2)nc1NC(C)C`: the results for the pEC50 in the data set with Plasmodium falciparum [1] and in the data set with Plasmodium falciparum [3] were 5.96 and 6.15, respectively. In addition, the CC50 in data set [2] amounted to 2500 nM.
For `CC[n+]1c(/C=C/C=C2\N(C)c3ccccc3C2(C)C)n(-c2ccccc2)c2cc(Cl)ccc21` the same measures were 6.28, 6.54 and 1690 nM.
For `COc1ccccc1/C=C\CN(C(=O)c1ccc(C)cc1)C(c1ccccc1)c1ccccc1` the same measures were less than 5.87, 5.95 and greater than 4360 nM.
The like results for `CCCCN(C)Cc1ccc2c(NC(=O)c3ccc(C)s3)c(C(=O)OC)sc2n1` were, in that order, 6.34, 6.27 and 1520 nM.
Consider `CC1=C(CO)C(=O)O[C@@H]([C@@H](C)[C@H]2CC[C@H]3[C@@H]4C[C@H]5O[C@]56[C@@H](O)C=CC(=O)[C@]6(C)C4CC[C@]23C)C1` (some centres undefined), for which the pEC50 is 5.77 in the data set with Plasmodium falciparum [1] and 5.30 in the data set on Plasmodium falciparum [3]. In data set [2], this compound yielded a CC50 of 3630 nM.
As for `CCCCc1ccc(C(=O)NCCCN(C(=O)Nc2ccc([N+](=O)[O-])cc2)c2ccccc2)cc1`, the results for the pEC50 with Plasmodium falciparum [1] and in the data set on Plasmodium falciparum [3] were 5.92 and less than 5.90, respectively. In addition, in data set [2], the CC50 came to 2680 nM.
For `CCOc1ccc(NC(=O)c2ccc(C)o2)cc1` the same measures were 5.35, 5.43 and 13000 nM.
For `c1ccc2c(c1)CSc1sccc1C2=C1CCNCC1`, the pEC50 with Plasmodium falciparum [1] is 5.36; in the data set on Plasmodium falciparum [3], 7.06. In data set [2], this compound registered a CC50 of 13000 nM.
For `Cc1cc(Nc2cccc(Cl)c2)nc2ccc(NC(=O)c3cccnc3)cc12` the same measures were 5.88, 6.14 and 4190 nM.
The like results for `CCN1C(=O)c2ccccc2Sc2ccc(NC(=O)NCCCOC(C)C)cc21` were, in that order, less than 5.00, less than 5.00 and 32100 nM.
As for `CN1CCN(c2ccc(NC(=O)Oc3ccccc3)cc2)CC1`, the pEC50 in the data set on Plasmodium falciparum [1] was 5.13; in the data set with Plasmodium falciparum [3], 5.38. The compound further displayed a CC50 in data set [2] of 25400 nM.
For `CCC(c1nc2ccccc2c(=O)n1-c1cccc(Cl)c1)N(CCC(C)C)C(=O)COCc1ccccc1` (centres undefined) the same measures were less than 5.94, 5.92 and 3910 nM.
The like results for `CCOc1cc(Br)cc(C=NNC(=O)COc2cccc(C)c2)c1O` were, in that order, less than 4.90, 5.12 and greater than 46200 nM.
The like results for `O=S(=O)(/C=C/c1ccccc1)NCCCCNc1ccnc2cc(Cl)ccc12` were, in that order, 6.40, 6.39 and 1480 nM.
Consider `CC1CC(C)CC(C)C(O)C(C#N)=CC=CCC(C2CCCC2C(=O)O)OC(=O)CC(O)C(C)C1` (centres undefined), for which the results for the pEC50 in the data set with Plasmodium falciparum [1] and in the data set with Plasmodium falciparum [3] were less than 5.90 and 7.36, respectively. Moreover, the CC50 in data set [2] came out at 2850 nM.
On to `Cc1ccc(O)c(C(=O)c2c[nH]c(-c3nc4ccccc4[nH]3)c2)c1`, for which the results for the negative logarithm of the EC50 (pEC50) in the data set on Plasmodium falciparum [1] and in the data set with Plasmodium falciparum [3] were 5.61 and 5.54, respectively. Also, the half-maximal cytotoxic concentration (CC50) in data set [2] turned out to be 5650 nM.
For `COC(=O)c1sc2nc(CN(C)Cc3nccs3)ccc2c1NC(=O)c1ccc(C)s1` the same measures were 5.94, less than 5.88 and greater than 2840 nM.
The like results for `COc1ccc(C(=O)N2C(C(=O)Nc3ccc(C)cc3)CSC2c2ccc(C(C)(C)C)cc2)cc1` (centres undefined) were, in that order, 5.93, 5.98 and greater than 2970 nM.
The like results for `C[n+]1c(C=Cc2ccc(Cl)c(Cl)c2)ccc2ccccc21` were, in that order, 5.75, 6.28 and 5370 nM.
Regarding `COc1cc(C(=O)Nc2c3c(nn2-c2cc(C)cc(C)c2)CSC3)cc(OC)c1OC`, the pEC50 in the data set with Plasmodium falciparum [1] was 6.47; in the data set on Plasmodium falciparum [3] it was 6.04. In data set [2], this compound gave a cytotoxic concentration (CC50) greater than 1070 nM.
For `COc1ccc(N2CCN(c3ncnc4sc(C(=O)NCc5cccnc5)c(C)c34)CC2)cc1` the same measures were less than 5.09, less than 4.95 and 20700 nM.
`NC(=O)C1CCCN(C(=O)COC(c2ccccc2)c2cccnc2Cl)C1` (centres undefined): the pEC50 was less than 4.90 with Plasmodium falciparum [1] and 5.32 in the data set with Plasmodium falciparum [3]. For the same compound, the CC50 in data set [2] stood at 45600 nM.
Consider `CCCCCCC1CCC(O)(C(C)(O)C(=O)NC2C(=O)N3NCCCC3C(=O)N(O)C(COC)C(=O)NCC(=O)N3NCCCC3C(=O)N(O)C(C)C(=O)OC2C)OC1C` (centres undefined), for which the pEC50 with Plasmodium falciparum [1] is 6.91; with Plasmodium falciparum [3], 6.66. In data set [2], this compound came in with a CC50 of 197 nM.
`Nc1nnc(CCSc2ccc(Cl)cc2)s1`: the pEC50 in the data set on Plasmodium falciparum [1] was less than 5.90; with Plasmodium falciparum [3], 6.76. The compound further showed a CC50 in data set [2] greater than 3710 nM.
For `c1ccc(CNc2nc(-c3ccccn3)nnc2-c2ccccc2)cc1` the same measures were 6.49, 6.74 and 630 nM.
For `CCOc1ccc2c(c1)c1nnc(-c3ccc4c(c3)OCO4)c-1cn2Cc1ccc(Cl)cc1` the same measures were 5.30, 5.08 and 14600 nM.
The like results for `Cn1ccnc1C(=O)NNc1ncc(C(F)(F)F)cc1Cl` were, in that order, 6.44, 6.22 and 1150 nM.
As to `O=C(Nc1cccc(Cl)c1)Nc1cc(C(F)(F)F)cc(C(F)(F)F)c1`, the negative logarithm of the EC50 (pEC50) was less than 5.00 in the data set with Plasmodium falciparum [1] and 5.49 with Plasmodium falciparum [3]. Also, it took 19500 nM to reach half-maximal cytotoxicity in data set [2] (CC50).
Take `O=C1NC(=S)N/C1=C/c1ccc(C(F)(F)F)cc1`: the pEC50 was less than 5.96 in the data set on Plasmodium falciparum [1] and less than 5.99 in the data set on Plasmodium falciparum [3]. The CC50 in data set [2] was greater than 2880 nM.
Regarding `CC1=C(CC(=O)c2cccc([N+](=O)[O-])c2)C(=O)c2ccccc2C1=O`, the pEC50 in the data set on Plasmodium falciparum [1] is 5.76; in the data set on Plasmodium falciparum [3], 5.55. Besides, in data set [2], it took 4690 nM to reach half-maximal cytotoxicity (CC50).
For the compound `O=C(Nc1cccc(C(F)(F)F)c1)c1ccc(-c2cccs2)cc1`, the figures for the pEC50 in the data set on Plasmodium falciparum [1] and in the data set with Plasmodium falciparum [3] were 5.71 and 5.00, respectively. Besides, in data set [2], the CC50 stood at 7130 nM.
The like results for `c1ccc(-c2ccc(-c3ccccn3)nc2)nc1` were, in that order, 6.85, 6.54 and 360 nM.
The like results for `Cc1ccccc1N=c1oc2ccc3ccccc3c2cc1-c1nc2ccccc2[nH]1` were, in that order, less than 5.90, less than 6.00 and greater than 2100 nM.
The like results for `CCC1CC2CCC(O2)C(C)C(=O)OC(C)CC2CCC(O2)C(C)C(=O)OC(CC)CC2CCC(O2)C(C)C(=O)OC(C)CC2CCC(O2)C(C)C(=O)O1` (centres undefined) were, in that order, 6.64, 6.79 and 356 nM.
For `CC(C)(C)C1=NN(CC(=O)Nc2ccc3c(c2)OCO3)C(=O)c2cc3ccccc3n2C1`, the figures for the pEC50 in the data set with Plasmodium falciparum [1] and with Plasmodium falciparum [3] were 5.50 and less than 4.90, respectively. This compound also came in with a CC50 in data set [2] of 9810 nM.
